“And” between values parts separate entries of the source, which are not always exact repeats. Equal entries are not always repeated. Where two headings read alike, the source gives them in different places.
How the values were obtained:
KRAS G12D = KRAS G12D (Homo sapiens (Human), UniProt P01116, G12D); experiment: KRAS G12D LoEnz Biochemical Assay, BODIPY-GDP Exchange TR-FRET (SOS1-mediated nucleotide exchange); conditions: read-out: KRas (G12D) GDP HTRF IC50
KRAS WT [1] = biological target: T1, KRAS WT (Homo sapiens (Human), UniProt P01116); experiment: KRAS WT Biochemical Assay, BODIPY-GDP Exchange TR-FRET (Example 502; 0.06 nM KRAS WT, 15 nM GDP, 300 nM SOS1, 120-minute incubation); conditions: read-out: KRas HTRF IC50
Outline: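 Biotin-tagged recombinant KRAS WT (0.06 nM) preloaded with 15 nM GDP and Tb-streptavidin, 10 min RT, then exchange started with 300 nM SOS1 plus 300 nM BODIPY-GDP in HEPES pH 7.5 buffer with MgCl2. TR-FRET 520/490 ratio read after 120 min; normalized to DMSO and full-inhibition control; IC50 from 4-parameter fit.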

[2] = system: HPAC (homozygous mutant KRAS G12D human pancreatic cell line); experiment: KRAS 3D-Cell Proliferation Assay, HPAC (CellTiter-Glo 3D, 7 days); assay type: cell-based; conditions: HPAC 3D culture, read-out: Prolif HPAC 3D ATP IC50
Protocol: (§1) Example 503: KRAS 3D-Cell Proliferation Assays. Cellular potencies of compounds are assessed by evaluating inhibition of proliferation in 3D cultures of homozygous mutant KRAS G12D human pancreatic cell lines (AsPC-1 and HPAC) as compared to a KRAS wild type human lung adenocarcinoma cell line (PC-9 and/or H1975). Cells are seeded into 384-well black round-bottom, ultra-low attachment assay plates in 50 uL cell growth medium (RPMI-1640 with 10% fetal bovine serum and 2 mM L-glutamine). After overnight incubation at 37° C. and 5% CO2, compounds solubilized in DMSO are added as dilution series to the wells in a total volume of 150 nL (0.3% DMSO final). The cells are incubated for 7 days at 37° C. and 5% CO2. Cell proliferation is quantitated by addition of 40 uL/well of CellTiter-GloO 3D (Promega), and the well contents are mixed 20× at high speed using liquid handling automation workstation (Bravo with 384-well head) and centrifuged at 1500 rpm for 2 minutes to eliminate bubbles. This reagent in combination with mechanical disruption releases the cellular ATP to promote activity in a luciferase-based enzyme/substrate chemiluminescent detection system. After a 30-minute incubation under ambient conditions with shaking and an additional 10 minutes without shaking, the luminescence is read on a plate reader (e.g. EnVision [PerkinElmer]). The results are normalized to percent inhibition based on the following control samples: DMSO (0% inhibition) and 1 uM staurosporine (100% inhibition). The normalized luminescence results are plotted against compound concentration, and the data are fit to a 4-parameter Hill equation to determine the IC50 values.

[3] = system: H1975 (KRAS wild type human lung adenocarcinoma cell line); experiment: KRAS 3D-Cell Proliferation Assay, H1975 (CellTiter-Glo 3D, 7 days); assay type: cell-based; conditions: H1975 3D culture, read-out: Prolif H1975 3D ATP IC50
Protocol: as §1

KRAS WT [4] = biological target: T1, KRAS WT; experiment: KRAS WT Biochemical Assay, BODIPY-GDP Exchange TR-FRET (Example 501; 3 nM KRAS WT, 3 nM SOS1, 60-minute incubation)
Outline: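 SOS1-mediated exchange assay: 3 nM biotin-KRAS WT with terbium-streptavidin, started with 3 nM SOS1 and 300 nM BODIPY-GDP, HEPES pH 7.5 with MgCl2. TR-FRET (520/490 nm) read after 60 min; normalized to DMSO and full-inhibition control, IC50 from 4-parameter Hill fit.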

[5] = system: PC-9 (KRAS wild type human lung adenocarcinoma cell line); experiment: KRAS 3D-Cell Proliferation Assay, PC-9 (CellTiter-Glo 3D, 7 days); assay type: cell-based; conditions: PC-9 3D culture, read-out: Prolif PC9 3D ATP IC50
Protocol: as §1

[6] = read-out: KRas(wt) GDP HTRF IC50

T1 sequence (P01116-2 other isoform, or with tags, fused parts or gaps): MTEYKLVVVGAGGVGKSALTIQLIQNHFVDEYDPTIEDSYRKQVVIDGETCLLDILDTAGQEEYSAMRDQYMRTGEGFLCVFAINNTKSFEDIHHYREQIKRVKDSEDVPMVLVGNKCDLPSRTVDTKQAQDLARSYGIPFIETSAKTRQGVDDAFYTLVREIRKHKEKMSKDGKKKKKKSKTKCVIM
KRAS G12D, sequence (P01116-2 other isoform, or with tags, fused parts or gaps G12D): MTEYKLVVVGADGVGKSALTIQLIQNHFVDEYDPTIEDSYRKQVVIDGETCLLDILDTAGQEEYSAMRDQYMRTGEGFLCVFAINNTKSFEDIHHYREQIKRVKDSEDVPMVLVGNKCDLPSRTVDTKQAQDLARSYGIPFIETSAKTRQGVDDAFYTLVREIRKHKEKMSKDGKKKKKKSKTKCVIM

Cc1c(F)c(N)cc(-c2nc3c4c(nc(OCC56CCCN5CCN(C)C6=O)nc4c2F)N2C[C@H]4CC[C@H](N4)[C@H]2[C@H](C)O3)c1C(F)(F)F (single isomer, unassigned) [137 (isomer 2)]
IC50 (KRAS G12D): 2.34 nM | IC50 (KRAS WT [1]): 454 nM | IC50 ([2]; Homo sapiens, HPAC, 168 h): 193 nM | IC50 ([3]; Homo sapiens, NCI-H1975, 168 h): 20000 nM

Cc1c(F)c(N)cc(-c2nc3c4c(nc(OCC56CCCN5CC(F)C6F)nc4c2F)N2C[C@H]4CC[C@H](N4)[C@H]2[C@H](C)O3)c1C(F)(F)F (single isomer, unassigned) [143 (isomer 2)]
IC50 (KRAS G12D): 0.26 nM | IC50 (KRAS WT [1]): 33.5 nM | IC50 ([2]; Homo sapiens, HPAC, 168 h): 3.52 nM | IC50 ([3]; Homo sapiens, NCI-H1975, 168 h): 1130 nM

Cc1c(F)c(N)cc(-c2nc3c4c(nc(OC[C@@H]5C[C@@H]6C[N@@]5CCO6)nc4c2F)N2C[C@H]4CC[C@H](N4)[C@H]2[C@H](C)O3)c1C(F)(F)F (single isomer, unassigned) [151 (isomer 1)]
IC50 (KRAS G12D): 1.84 nM | IC50 (KRAS WT [1]): 398 nM | IC50 ([2]; Homo sapiens, HPAC, 168 h): 323 nM | IC50 ([3]; Homo sapiens, NCI-H1975, 168 h): 20000 nM

Cc1c(F)c(N)cc(-c2nc3c4c(nc(OCC5C[C@@H]6C[N@@]5CCO6)nc4c2F)N2C[C@H]4CC[C@H](N4)[C@H]2[C@H](C)O3)c1C(F)(F)F (single isomer, unassigned) [151 (isomer 2)]
IC50 (KRAS G12D): 0.12 nM | IC50 (KRAS WT [1]): 25.5 nM | IC50 ([2]; Homo sapiens, HPAC, 168 h): 8.04 nM | IC50 ([3]; Homo sapiens, NCI-H1975, 168 h): 1690 nM

Cc1c(F)c(N)cc(-c2nc3c4c(nc(OCC5CCC6CC(F)(F)CN56)nc4c2F)N2C[C@H]4CC[C@H](N4)[C@H]2[C@H](C)O3)c1C(F)(F)F (single isomer, unassigned) [153 (isomer 1)]
IC50 (KRAS G12D): 0.37 nM | IC50 (KRAS WT [1]): 90.9 nM | IC50 [2]: 19 nM | IC50 ([3]; Homo sapiens, NCI-H1975, 168 h): 4740 nM

Cc1c(F)c(N)cc(-c2nc3c4c(nc(OCC5CCC6CC(F)(F)CN56)nc4c2F)N2C[C@H]4CC[C@H](N4)[C@H]2[C@H](C)O3)c1C(F)(F)F (single isomer, unassigned) [153 (isomer 2)]
IC50 (KRAS G12D): 0.32 nM | IC50 (KRAS WT [1]): 87.6 nM | IC50 [2]: 13.4 nM | IC50 [3]: 4180 nM

Cc1c(F)c(N)cc(-c2nc3c4c(nc(OCC5CCC6CC(F)(F)CN56)nc4c2F)N2C[C@H]4CC[C@H](N4)[C@H]2[C@H](C)O3)c1C(F)(F)F (single isomer, unassigned) [153 (isomer 3)]
IC50 (KRAS G12D): 0.55 nM | IC50 (KRAS WT [1]): 125 nM | IC50 [2]: 32.9 nM | IC50 [3]: 4490 nM

Cc1c(F)c(N)cc(-c2nc3c4c(nc(OC[C@@H]5C[C@H]6COCCN65)nc4c2F)N2C[C@H]4CC[C@H](N4)[C@H]2[C@H](C)O3)c1C(F)(F)F (single isomer, unassigned) [159 (diast. 2)]
IC50 (KRAS G12D): 0.23 nM | IC50 (KRAS WT [1]): 48.1 nM | IC50 ([2]; Homo sapiens, HPAC, 168 h): 23.8 nM | IC50 ([3]; Homo sapiens, NCI-H1975, 168 h): 1240 nM

Cc1c(F)c(N)cc(-c2nc3c4c(nc(OC[C@]5(CN6C[C@H]7C[C@@H]6CO7)CC5(F)F)nc4c2F)N2C[C@H]4CC[C@H](N4)[C@H]2[C@H](C)O3)c1C(F)(F)F (single isomer, unassigned) [166 a]
IC50 (KRAS G12D): 0.1 nM | IC50 (KRAS WT [1]): 3.68 nM | IC50 ([2]; Homo sapiens, HPAC, 168 h): 1.44 nM | IC50 [3]: 1270 nM

C[C@@H]1Oc2nc(-c3cccc4cccc(Cl)c34)c(F)c3nc(OCC45CCN4CC(F)(F)C5)nc(c23)N2C[C@H]3CC[C@H](N3)[C@@H]12 (single isomer, unassigned) [Compound 21]
IC50 (KRAS WT [4]; [6]): 3890 nM and 1400 nM | IC50 [5]: 8130 nM

Cc1cc(N)nc(-c2nc3c4c(nc(OC[C@]56CCN5CC(F)(F)C6)nc4c2F)N2C[C@H]4CC[C@H](N4)[C@H]2[C@H](C)O3)c1C(F)(F)F (single isomer, unassigned) [Compound 45]
IC50 (KRAS WT [4]; [6]): 69.4 nM and 319 nM | IC50 ([5]; Homo sapiens, PC-9, 168 h): 20000 nM

Cc1cc(N)c(F)c(-c2nc3c4c(ncnc4c2Cl)N2C[C@H]4CC[C@H](N4)[C@H]2[C@H](C)O3)c1C(F)(F)F (single isomer, unassigned) [Compound 94]
IC50 (KRAS G12D): 2300 nM | IC50 (KRAS WT [1]): 200000 nM | IC50 [2]: 2230 nM | IC50 [3]: 15200 nM

Cc1c(F)c(N)cc(-c2nc3c4c(nc(OCC5CC(F)C6CCCN56)nc4c2F)N2C[C@H]4CC[C@H](N4)[C@H]2[C@H](C)O3)c1C(F)(F)F (single isomer, unassigned) [Compound 160 (diast. 2)]
IC50 (KRAS G12D): 0.12 nM | IC50 (KRAS WT [1]): 22.5 nM | IC50 ([2]; Homo sapiens, HPAC, 168 h): 6.97 nM | IC50 ([3]; Homo sapiens, NCI-H1975, 168 h): 755 nM

Cc1c(F)c(N)cc(-c2nc3c4c(nc(OC[C@]5(CN6C[C@H]7C[C@@H]6CO7)CC5(F)F)nc4c2F)N2C[C@H]4CC[C@H](N4)[C@H]2[C@H](C)O3)c1C(F)(F)F [166 b, 5-((5S,5aS,6S,9R)-12-((1-(((1R,4R)-2-Oxa-5-azabicyclo[2.2.1]heptan-5-yl)methyl)-2,2-difluorocyclopropyl)methoxy)-1-fluoro-5-methyl-5a,6,7,8,9,10-hexahydro-5H-4-oxa-3,10a,11,13,14-pentaaza-6,9-methanonaphtho[1,8-ab]heptalen-2-yl)-2-fluoro-3-methyl-4-(trifluoromethyl)aniline]
IC50 (KRAS G12D): 0.15 nM | IC50 (KRAS WT [1]): 5.38 nM | IC50 [2]: 1.49 nM | IC50 [3]: 402 nM

C#Cc1cccc2cc(O)cc(-c3nc4c5c(nc(OC[C@@]67CCCN6C[C@H](F)C7)nc5c3F)N3C[C@H]5CC[C@H](N5)[C@H]3[C@H](C)O4)c12 [Compound 11, 5-ethynyl-4-((5S,5aS,6S,9R)-1-fluoro-12-(((2R,7aS)-2-fluorotetrahydro-1H-pyrrolizin-7a(5H)-yl)methoxy)-5-methyl-5a,6,7,8,9,10-hexahydro-5H-4-oxa-3,10a,11,13,14-pentaaza-6,9-methanonaphtho[1,8-ab]heptalen-2-yl)naphthalen-2-ol]
IC50 (KRAS G12D): 0.06 nM | IC50 (KRAS WT [4]; [6]): 0.38 nM | IC50 ([5]; Homo sapiens, PC-9, 168 h): 20000 nM

C#Cc1c(F)ccc2cccc(-c3nc4c5c(nc(OCC67CCN6CC(F)(F)C7)nc5c3F)N3C[C@H]5CC[C@H](N5)[C@H]3[C@H](C)O4)c12 (stereo partly drawn) [Compound 22, (5S,5aS,6S,9R)-12-((3,3-difluoro-1-azabicyclo[3.2.0]heptan-5-yl)methoxy)-2-(8-ethynyl-7-fluoronaphthalen-1-yl)-1-fluoro-5-methyl-5a,6,7,8,9,10-hexahydro-5H-4-oxa-3,10a,11,13,14-pentaaza-6,9-methanonaphtho[1,8-ab]heptane]
IC50 (KRAS WT [4]; read-out: KRas HTRF IC50): 9.95 nM | IC50 [5]: 7410 nM

C#Cc1cccc2cncc(-c3nc4c5c(nc(OC[C@@]67CCCN6C[C@H](F)C7)nc5c3F)N3C[C@H]5CC[C@H](N5)[C@H]3[C@H](C)O4)c12 [Compound 39, (5S,5aS,6S,9R)-2-(5-Ethynylisoquinolin-4-yl)-1-fluoro-12-(((2R,7aS)-2-fluorotetrahydro-1H-pyrrolizin-7a(5H)-yl)methoxy)-5-methyl-5a,6,7,8,9,10-hexahydro-5H-4-oxa-3,10a,11,13,14-pentaaza-6,9-methanonaphtho[1,8-ab]heptalene]
IC50 (KRAS G12D): 1.78 nM | IC50 (KRAS WT [4]; [6]): 76.1 nM | IC50 ([5]; Homo sapiens, PC-9, 168 h): 20000 nM

Cc1cc(N)c(F)c(-c2nc3c4c(ncnc4c2Cl)N2C[C@H]4CC[C@H](N4)[C@H]2[C@H](C)O3)c1C(F)(F)F [Compound 93, 3-((5S,5aS,6S,9R)-1-chloro-5-methyl-5a,6,7,8,9,10-hexahydro-5H-4-oxa-3,10a,11,13,14-pentaaza-6,9-methanonaphtho[1,8-ab]heptalen-2-yl)-2-fluoro-5-methyl-4-(trifluoromethyl)aniline]
IC50 (KRAS G12D): 73.4 nM | IC50 (KRAS WT [1]): 14400 nM | IC50 ([2]; Homo sapiens, HPAC, 168 h): 836 nM | IC50 ([3]; Homo sapiens, NCI-H1975, 168 h): 20000 nM

Cc1c(F)c(N)cc(-c2nc3c4c(nc(OC[C@@]56CCCN5CC5(CC5(F)F)C6)nc4c2F)N2C[C@H]4CC[C@H](N4)[C@H]2[C@@H](C)O3)c1C(F)(F)F (some centres unmarked) [compound 63]
IC50 (KRAS G12D): 0.15 nM | IC50 (KRAS WT [1]): 21.7 nM | IC50 [2]: 82.4 nM | IC50 [3]: 20800 nM
